These results are taken from patent US20230263822A1, “MODULATION OF FACTOR 11 EXPRESSION” (Ionis Pharmaceuticals, Inc., priority 2008, published 2023).

One series relates to murine Factor 11 mRNA. Put plainly: In vivo antisense inhibition of murine Factor 11 mRNA in liver (Example 10). As to conditions: BALB/c mice, relative to PBS control. The method, then: BALB/c mice were injected with 5 mg/kg, 10 mg/kg, 25 mg/kg, or 50 mg/kg of ISIS 404057 or ISIS 404071 twice a week for 3 weeks. A control group of mice was injected with phosphate buffered saline (PBS) twice a week for 3 weeks. Mice were sacrificed 5 days after receiving the last dose. Whole liver was harvested for RNA analysis and plasma was collected for clotting analysis (PT and aPTT) and protein analysis.
RNA was extracted from liver tissue for real-time PCR analysis of Factor 11. […] Results are presented as percent inhibition of Factor 11, relative to control.

The next series deals with mouse Factor 11 mRNA. Briefly: Cross-reactive antisense inhibition of murine Factor 11 in primary mouse hepatocytes, 100 nM (Example 9). The series is classed as cell-based. As to conditions: ~24 hours. As to the method:
Antisense oligonucleotides targeted to a murine factor 11 nucleic acid were tested for their effects on Factor 11 mRNA in vitro. Cultured primary mouse hepatocytes at a density of 10,000 cells per well were treated with 100 nM antisense oligonucleotide. After a treatment period of approximately 24 hours, RNA was isolated from the cells and mouse Factor 11 mRNA levels were measured by quantitative real-time PCR. Factor 11 mRNA levels were adjusted according to total RNA content, as measured by RIBOGREEN. Results are presented as percent inhibition of Factor 11, relative to untreated control cells.
The chimeric antisense oligonucleotides in Tables 16 were designed as 5-10-5 MOE gapmers. The gapmers are 20 nucleotides in length, wherein the central gap segment is comprised of 10 2′-deoxynucleotides and is flanked on both sides (in the 5′ and 3′ directions) by wings comprising 5 nucleotides each. Each nucleotide in the 5′ wing segment and each nucleotide in the 3′ wing segment has a 2′-MOE modification. The internucleoside linkages throughout each gapmer are phosphorothioate (P=S) linkages. All cytidine residues throughout each gapmer are 5-methylcytidines. “Mouse target start site” indicates the 5′-most nucleotide to which the gapmer is targeted. “Mouse target stop site” indicates the 3′-most nucleotide to which the gapmer is targeted. All the mouse oligonucleotides listed show cross-reactivity between the mouse Factor 11 mRNA (GENBANK Accession No. NM_028066.1), incorporated herein as SEQ ID NO: 6 and the human Factor 11 mRNA (GENBANK Accession No. NM_000128.3), incorporated herein as SEQ ID NO: 1. “Human Target Start Site” indicates the 5′-most nucleotide in the human mRNA (GENBANK Accession No. NM_000128.3) to which the antisense oligonucleotide is targeted. “Human Target Stop Site” indicates the 3′-most nucleotide in the human mRNA (GENBANK Accession No. NM_000128.3) to which the antisense oligonucleotide is targeted. “Number of mismatches” indicates the mismatches between the mouse oligonucleotide and the human mRNA sequence.

The conditions of series [1]: mouse, in vivo, sc, 50 mg/kg.
The conditions of series [2]: mouse, in vivo, sc, 50 mg/kg. The source holds these as a separate data set.
For series [3] the following is noted: mouse, in vivo, sc, 50 mg/kg. This is another data set of the same source.
For series [4] the following is noted: rat, in vivo, sc, 50 mg/kg.
For series [5] the following is noted: rat, in vivo, sc, 50 mg/kg. This is another data set of the same source.
For series [6] the following is noted: rat, in vivo, sc, 50 mg/kg. The source holds these as a separate data set.
Where [7] appears, read: 5 mg/kg twice a week for 3 weeks.
Where [8] appears, read: 10 mg/kg twice a week for 3 weeks.
Where [9] appears, read: 25 mg/kg twice a week for 3 weeks.
Where [10] appears, read: 50 mg/kg twice a week for 3 weeks.

Where two headings read alike, the source gives them in different places. Strand notation (5' to 3'): a small letter for the sugar, then the base; units joined by * are phosphorothioate-linked, units joined directly phosphodiester-linked; [ ] holds rarer units or linkages, { } end groups; capitals alone tell only the bases. e = 2'-O-(2-methoxyethyl) (MOE); [5mC] = 5-methylcytosine; d = 2'-deoxy (DNA)

In the case of “404057 (eT*e[5mC]*e[5mC]*eT*eG*dG*d[5mC]*dA*dT*dT*d[5mC]*dT*d[5mC]*dG*dA*eG*e[5mC]*eA*eT*eT) [compound 404057]”, the “% inhibition of murine Factor 11 mRNA” value is reported as 40% with murine Factor 11 mRNA (setting [7]), 64% in the series with murine Factor 11 mRNA (setting [8]), 85% with murine Factor 11 mRNA (setting [9]) and 95% in the series on murine Factor 11 mRNA (setting [10]).

On to “404067 (antisense eG*eG*eG*eA*eA*dA*dA*dT*dG*dT*d[5mC]*d[5mC]*d[5mC]*dT*dG*eA*eT*eA*e[5mC]*eA) [compound 404067]”, for which the “% Inhibition of mouse Factor 11 mRNA levels” value in the series with mouse Factor 11 mRNA came out at 39%.

“404071 (antisense eT*eG*eG*eT*eA*dA*dT*d[5mC]*d[5mC]*dA*d[5mC]*dT*dT*dT*d[5mC]*eA*eG*eA*eG*eG) [compound 404071]”: the “% inhibition of murine Factor 11 mRNA” value turned out to be 72% with murine Factor 11 mRNA (setting [7]), 82% with murine Factor 11 mRNA (setting [8]), 93% with murine Factor 11 mRNA (setting [9]) and 96% in the series with murine Factor 11 mRNA (setting [10]).

Consider “404083 (antisense eT*eG*eT*eG*e[5mC]*dA*dG*dA*dG*dT*d[5mC]*dA*d[5mC]*d[5mC]*dT*eG*e[5mC]*e[5mC]*eA*eT) [compound 404083]”, for which the “% Inhibition of mouse Factor 11 mRNA levels” value in the series on mouse Factor 11 mRNA was determined as 47%.

As to “404087 (antisense eT*eT*e[5mC]*eT*eT*dG*dA*dA*d[5mC]*d[5mC]*d[5mC]*dT*dG*dA*dA*eG*eA*eA*eA*eG) [compound 404087]”, in the series with mouse Factor 11 mRNA, the “% Inhibition of mouse Factor 11 mRNA levels” value is given as 29%.

As for “404089 (antisense eT*eG*eA*eA*eT*dT*dA*dT*d[5mC]*dA*dT*dT*dT*d[5mC]*dT*eT*eG*eA*eA*e[5mC]) [compound 404089]”, the “% Inhibition of mouse Factor 11 mRNA levels” value with mouse Factor 11 mRNA is recorded as 6%.

Consider “404090 (antisense eT*eG*eA*eT*e[5mC]*dA*dT*dG*dA*dA*dT*dT*dA*dT*d[5mC]*eA*eT*eT*eT*e[5mC]) [compound 404090]”, for which the “% Inhibition of mouse Factor 11 mRNA levels” value in the series on mouse Factor 11 mRNA came out at 42%.

On to “ISIS 445498: 5-8-5 or 6-8-6 MOE microwalk gapmer (Table 44) (antisense GGTGCACAGTTTCTGGCAGG; sugars from the 5' end e6 d8 e6, backbone and methylation of C not given here)”, for which, in series [1], the ALT was 66 IU/L, the AST amounted to 102 IU/L, the Albumin came to 3.4 and the Bilirubin was 0.24 mg/dL. Besides, in series [2], the BUN is 28 mg/dL. Further, in series [3], the HCT is recorded as 47%, the Lymphocyte is reported as 3241, the Neutrophil stood at 1197 and the Platelets was found to be 802. In series [3], this substance showed an RBC of 9.4, a WBC of 5 and a hemoglobin of 13.9 g/dL. Also, in series [4], the ALT came out at 417 IU/L, the AST is recorded as 124 IU/L, the Albumin amounted to 3.7 and the Bilirubin is 0.14 mg/dL. Besides, in series [5], the BUN stood at 25 mg/dL, the Creatinine stood at 0.5 mg/dL and the Urine protein/creatinine ratio was 3.1. Besides, in series [6], the HCT stood at 49%, the Lymphocyte came to 89%, the Neutrophil is recorded as 9% and the Platelets was 1061 nL⁻¹. In addition, in series [6], the RBC came out at 8.5 pL⁻¹, the WBC is 13 nL⁻¹, the hemoglobin was found to be 14.7 g/dL and the monocytes was found to be 2.0%.

In series [1], “ISIS 445503: 5-8-5 or 6-8-6 MOE microwalk gapmer (Table 44) (antisense GCATTGGTGCACAGTTTCTG; sugars from the 5' end e6 d8 e6, backbone and methylation of C not given here)” came in with an ALT of 1314 IU/L, an AST of 852 IU/L, an Albumin of 3.4 and a Bilirubin of 0.28 mg/dL. Further, the BUN in series [2] turned out to be 29 mg/dL. In series [3], this substance showed an HCT of 46%, a Lymphocyte of 6436, a Neutrophil of 1475 and a Platelets of 309. Also, in series [3], the RBC stood at 9.2, the WBC is given as 8 and the hemoglobin is 13.6 g/dL.

“ISIS 445504: 5-8-5 or 6-8-6 MOE microwalk gapmer (Table 44) (antisense GGCATTGGTGCACAGTTTCT; sugars from the 5' end e6 d8 e6, backbone and methylation of C not given here)”: in series [1], the ALT stood at 71 IU/L, the AST was 107 IU/L, the Albumin is 3.4 and the Bilirubin is 0.17 mg/dL. Also, the BUN in series [2] is on record as 29 mg/dL. Moreover, in series [3], the HCT came to 49%, the Lymphocyte was determined as 3578, the Neutrophil was determined as 959 and the Platelets is listed as 826. In series [3], this substance displayed an RBC of 9.6, a WBC of 5 and a hemoglobin of 14.7 g/dL. In series [4], this substance gave an ALT of 206 IU/L, an AST of 86 IU/L, an Albumin of 3.5 and a Bilirubin of 0.11 mg/dL. In addition, in series [5], the BUN is reported as 26 mg/dL, the Creatinine is reported as 0.4 mg/dL and the Urine protein/creatinine ratio is 4.3. Besides, in series [6], the HCT is 50%, the Lymphocyte is 87%, the Neutrophil is 10% and the Platelets was found to be 776 nL⁻¹. In addition, in series [6], the RBC turned out to be 8.9 pL⁻¹, the WBC is 16 nL⁻¹, the hemoglobin was 14.7 g/dL and the monocytes is listed as 2.0%.

“ISIS 445532: 5-8-5 or 6-8-6 MOE microwalk gapmer (Table 44) (antisense CGGCATTGGTGCACAGTT; sugars from the 5' end e5 d8 e5, backbone and methylation of C not given here)”: in series [1], the ALT is listed as 395 IU/L, the AST was 360 IU/L, the Albumin is 2.9 and the Bilirubin is given as 0.20 mg/dL. This substance displayed a BUN in series [2] of 23 mg/dL. For the same substance, in series [3], the HCT was 48%, the Lymphocyte is 5490, the Neutrophil worked out at 1116 and the Platelets is on record as 689. In series [3], the RBC came out at 9.7, the WBC worked out at 7 and the hemoglobin turned out to be 14.8 g/dL.
